Literature values as cited in patent publication US20240033215A1 (AMOS PHARM, priority 2022, published 2024).
Values after ≈ are worked out from the molar mass of the structure shown. Like-named read-outs stand apart in the source and are kept apart here.

solubility (at acidic pH): 0.078 mg/mL (≈ 0.378 mM) | solubility (at alkaline pH): 291 mg/mL (≈ 1410 mM)
Structure (SMILES): CC(C)Cc1ccc([C@H](C)C(=O)O)cc1 [Dexibuprofen]
